# From PMC3764917 (Journal of medicinal chemistry, 2012)
# Where a name gives a salt, the structure may show the parent alone.
# Columns and labels:
# [1] = biological target: T1, FAAH (Rattus norvegicus, UniProt P97612); experiment: FAAH activity: [3H]anandamide hydrolysis by total rat brain homogenates; format: biochemical
# T1 sequence (P97612 1-579): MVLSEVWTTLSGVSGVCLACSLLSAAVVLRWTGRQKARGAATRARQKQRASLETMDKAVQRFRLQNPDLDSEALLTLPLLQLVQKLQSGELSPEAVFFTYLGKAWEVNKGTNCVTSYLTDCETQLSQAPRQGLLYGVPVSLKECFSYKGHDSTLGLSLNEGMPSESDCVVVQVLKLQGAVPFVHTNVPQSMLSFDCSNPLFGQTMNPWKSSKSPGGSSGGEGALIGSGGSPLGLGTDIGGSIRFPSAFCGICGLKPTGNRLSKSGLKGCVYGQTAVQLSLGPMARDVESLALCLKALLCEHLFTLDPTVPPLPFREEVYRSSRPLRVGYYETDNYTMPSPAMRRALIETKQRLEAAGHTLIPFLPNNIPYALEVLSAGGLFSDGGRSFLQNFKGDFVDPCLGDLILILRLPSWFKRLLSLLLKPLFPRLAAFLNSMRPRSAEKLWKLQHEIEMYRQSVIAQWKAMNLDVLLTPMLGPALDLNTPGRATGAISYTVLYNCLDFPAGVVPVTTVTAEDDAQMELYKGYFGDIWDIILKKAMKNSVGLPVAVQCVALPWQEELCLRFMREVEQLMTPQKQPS
# [2] = biological target: T2, human COX-2 (Homo sapiens, UniProt P35354); experiment: COX activity, commercial enzyme immunoassay kit
# T2 sequence (P35354 18-604): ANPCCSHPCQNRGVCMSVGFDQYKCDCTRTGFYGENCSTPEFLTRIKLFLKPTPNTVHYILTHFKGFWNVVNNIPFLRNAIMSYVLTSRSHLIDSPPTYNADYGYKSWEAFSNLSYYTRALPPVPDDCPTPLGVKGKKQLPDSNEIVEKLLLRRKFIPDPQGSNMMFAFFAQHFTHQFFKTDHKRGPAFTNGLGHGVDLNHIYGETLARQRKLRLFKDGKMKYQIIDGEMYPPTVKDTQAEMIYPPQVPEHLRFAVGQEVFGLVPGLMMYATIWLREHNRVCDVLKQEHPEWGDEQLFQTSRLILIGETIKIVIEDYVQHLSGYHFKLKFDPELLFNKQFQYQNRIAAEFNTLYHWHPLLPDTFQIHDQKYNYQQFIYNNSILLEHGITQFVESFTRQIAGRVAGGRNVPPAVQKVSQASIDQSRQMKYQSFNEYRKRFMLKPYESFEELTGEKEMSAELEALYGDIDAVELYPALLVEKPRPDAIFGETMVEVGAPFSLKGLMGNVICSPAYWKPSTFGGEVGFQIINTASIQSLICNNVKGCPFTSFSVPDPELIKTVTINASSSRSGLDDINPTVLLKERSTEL
# [3] = biological target: T3, ovine COX-1 (Ovis aries, UniProt P05979); experiment: COX activity, commercial enzyme immunoassay kit
# T3 sequence (P05979 25-600): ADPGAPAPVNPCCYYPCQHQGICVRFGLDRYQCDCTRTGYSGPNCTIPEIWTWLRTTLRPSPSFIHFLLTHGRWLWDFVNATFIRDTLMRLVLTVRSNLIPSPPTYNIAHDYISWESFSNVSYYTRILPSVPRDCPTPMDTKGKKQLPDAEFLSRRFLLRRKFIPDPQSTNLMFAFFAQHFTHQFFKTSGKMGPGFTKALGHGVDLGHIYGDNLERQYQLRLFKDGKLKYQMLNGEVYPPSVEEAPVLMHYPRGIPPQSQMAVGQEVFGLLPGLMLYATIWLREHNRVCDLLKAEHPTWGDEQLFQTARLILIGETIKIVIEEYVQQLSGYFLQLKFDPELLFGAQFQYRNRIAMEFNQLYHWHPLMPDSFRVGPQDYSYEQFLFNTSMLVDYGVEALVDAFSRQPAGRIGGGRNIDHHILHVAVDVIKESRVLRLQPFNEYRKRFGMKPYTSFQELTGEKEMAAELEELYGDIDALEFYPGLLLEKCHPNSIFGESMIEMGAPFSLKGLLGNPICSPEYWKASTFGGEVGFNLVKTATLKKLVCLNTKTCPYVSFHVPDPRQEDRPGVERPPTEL
# [4] = test system: COX-2; settings: oxygen electrode assay, arachidonic acid as substrate; cited from earlier work
# [5] = humans; cited from earlier work
compound,measurement,setting,value
"CC(C(=O)O)c1ccc2c3cc(Cl)ccc3n(Cc3ccccc3)c2c1 (centres unmarked) [Compound 6b, 2-(9-benzyl-6-chloro-9H-carbazol-2-yl)propanoic acid]",increase in FAAH potency compared to 1,[1]; ratio of FAAH IC50 values versus compound 1,3 fold
"CCCCNC(=O)n1c2ccc(Cl)cc2c2ccc(C(C)C(=O)O)cc21 (centres unmarked) [Compound 10c, 2-(9-(butylcarbamoyl)-6-chloro-9H-carbazol-2-yl)propanoic acid]","FAAH inhibition, result in words",[1],no inhibition
"CC(C(=O)O)c1ccc2c3cc(Cl)ccc3n(C(=O)c3cscn3)c2c1 (centres unmarked) [Compound 15k, 2-(6-chloro-9-(thiazole-4-carbonyl)-9H-carbazol-2-yl)propanoic acid]","COX-2 inhibition, result in words",[2],detrimental
same,"COX-1 inhibition, result in words",[3],detrimental
same,"FAAH inhibition, result in words",[1],detrimental
"CC(C(=O)NCCO)c1ccc2c(c1)[nH]c1ccc(Cl)cc12 (centres unmarked) [Compound 4a, 2-(6-chloro-9H-carbazol-2-yl)-N-(2-hydroxyethyl)propanamide]","COX-2 inhibition, result in words",[2],lack of activity
same,"COX-1 inhibition, result in words",[3],lack of activity
"COc1ccc(C(=O)n2c3ccc(Cl)cc3c3ccc(C(C)C(=O)O)cc32)cc1 (centres unmarked) [Compound 15e, 2-(6-chloro-9-(4-methoxybenzoyl)-9H-carbazol-2-yl)propanoic acid]","COX-2 inhibition, result in words",[2],did not inhibit
same,"COX-1 inhibition, result in words",[3],did not inhibit
"COc1ccccc1Cn1c2ccc(Cl)cc2c2ccc(C(C)C(=O)O)cc21 (centres unmarked) [Compound 6g, 2-(6-chloro-9-(2-methoxybenzyl)-9H-carbazol-2-yl)propanoic acid]","FAAH activity at 30 μM, result in words",[1]; 30 μM,no activity
"CC(=O)n1c2ccc(Cl)cc2c2ccc(C(C)C(=O)O)cc21 (centres unmarked) [Compound 15a, 2-(9-acetyl-6-chloro-9H-carbazol-2-yl)propanoic acid]","COX-2 inhibition, result in words",[2],did not show any inhibitory potency
same,"COX-1 inhibition, result in words",[3],did not show any inhibitory potency
same,"FAAH inhibition, result in words",[1],did not show any inhibitory potency
"CC(C(=O)O)c1ccc2c3cc(Cl)ccc3n(C(=O)c3cccc(Cl)c3)c2c1 (centres unmarked) [Compound 15f, 2-(6-chloro-9-(3-chlorobenzoyl)-9H-carbazol-2-yl)propanoic acid]","COX-2 inhibition, result in words",[2],lost
same,"COX-1 inhibition, result in words",[3],lost
"CCCCCCOC(=O)n1c2ccc(Cl)cc2c2ccc(C(C)C(=O)O)cc21 (centres unmarked) [Compound 12, 2-(6-chloro-9-((hexyloxy)carbonyl)-9H-carbazol-2-yl)propanoic acid]",weaker potency against FAAH compared to 10a,[1]; ratio of FAAH IC50 values versus 10a,10 fold
"COC(=O)C(C)c1ccc2c(c1)[nH]c1ccc(Cl)cc12 (centres unmarked) [Compound 3, Methyl 2-(6-chloro-9H-carbazol-2-yl)propanoate]","COX-2 inhibition, result in words",[2],lack of activity
same,"COX-1 inhibition, result in words",[3],lack of activity
"CC(C(=O)O)c1ccc2c(c1)[nH]c1ccccc12 (centres unmarked) [Compound 2, 2-(9H-carbazol-2-yl)propanoic acid]",IC50,[1],5 µM
"CNC(=O)n1c2ccc(Cl)cc2c2ccc(C(C)C(=O)O)cc21 (centres unmarked) [Compound 10b, 2-[6-chloro-9-(methylcarbamoyl)carbazol-2-yl]propanoic acid]","FAAH inhibition, result in words",[1],no inhibition
"CC(C(=O)O)c1ccc2c3cc(Cl)ccc3n(C(=O)c3c[nH]cn3)c2c1 (centres unmarked) [Compound 15j, 2-(6-chloro-9-(1H-imidazole-4-carbonyl)-9H-carbazol-2-yl)propanoic acid hydrochloride]","COX-2 inhibition, result in words",[2],no relevant inhibition
same,IC50,[1],6 µM
"Cc1cccnc1NC(=O)C(C)c1ccc(CC(C)C)cc1 (centres unmarked) [ibu-am5, N-(3-methylpyridin-2-yl)-2-(4-isobutylphenyl)-propionamide]","COX-2 inhibition, result in words",[4],inactive
"CC(C(=O)O)c1ccc2c(c1)[nH]c1ccc(Cl)cc12 (centres unmarked) [Compound 1, carprofen]",ulcerogenic side effects compared to other NSAIDs,[5],reduced ulcerogenic side effects
"CC(C(=O)O)c1ccc2c3cc(Cl)ccc3n(C(=O)c3ccccc3Cl)c2c1 (centres unmarked) [Compound 15g, 2-(6-chloro-9-(2-chlorobenzoyl)-9H-carbazol-2-yl)propanoic acid]","COX-2 inhibition, result in words",[2],lost
same,"COX-1 inhibition, result in words",[3],lost
"CC(C(=O)Nc1ccccc1)c1ccc2c(c1)[nH]c1ccc(Cl)cc12 (centres unmarked) [Compound 4b, 2-(6-chloro-9H-carbazol-2-yl)-N-phenylpropanamide]","COX-2 inhibition, result in words",[2],lack of activity
same,"COX-1 inhibition, result in words",[3],lack of activity
"CC(C)Cc1ccc(C(C)C(=O)O)cc1 (centres unmarked) [ibuprofen, reference compound]","FAAH inhibition, result in words",[1],very weak
"CC(C(=O)O)c1ccc2c3cc(Cl)ccc3n(C(=O)c3ccc(F)cc3)c2c1 (centres unmarked) [Compound 15d, 2-(6-chloro-9-(4-fluorobenzoyl)-9H-carbazol-2-yl)propanoic acid]","COX-2 inhibition, result in words",[2],did not inhibit
same,"COX-1 inhibition, result in words",[3],did not inhibit
"CCCCCCNC(=O)n1c2ccc(Cl)cc2c2ccc(C(C)C(=O)O)cc21 (centres unmarked) [Compound 10a, 2-(6-chloro-9-(hexylcarbamoyl)-9H-carbazol-2-yl)propanoic acid]",IC50,[1],3 µM
"CC(C(=O)O)c1ccc2c3cc(Cl)ccc3n(C(=O)c3ccc(Cl)c(Cl)c3)c2c1 (centres unmarked) [Compound 15h, 2-(6-chloro-9-(3,4-dichlorobenzoyl)-9H-carbazol-2-yl)propanoic acid]","COX-2 inhibition, result in words",[2],total loss of activity
same,"COX-1 inhibition, result in words",[3],total loss of activity
same,"FAAH inhibition, result in words",[1],total loss of activity
